Reference: PMC2757182 (The Journal of Biological Chemistry, 2009)
Residue numbers refer to the chain shown, from its start.

Experiments:
Test in all cases: tryptophan fluorescence quenching
Format in all cases: binding
[1] = biological target: T1, GUN4 Δ1–69 (GENOMES UNCOUPLED 4) (Arabidopsis thaliana, UniProt Q9LX31)
T1 sequence (Q9LX31 70-265): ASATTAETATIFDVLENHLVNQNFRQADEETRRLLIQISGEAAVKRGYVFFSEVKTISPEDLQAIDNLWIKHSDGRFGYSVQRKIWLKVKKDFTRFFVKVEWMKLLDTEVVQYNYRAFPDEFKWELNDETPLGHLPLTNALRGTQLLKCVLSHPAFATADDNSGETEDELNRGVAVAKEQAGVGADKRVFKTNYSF

[2] = biological target: T2, GUN4 Δ1–69 (GENOMES UNCOUPLED 4) (Arabidopsis thaliana, UniProt Q9LX31, F191A)
T2 sequence (Q9LX31 70-265 F191A): T1 sequence (Q9LX31 70-265) with F122A

[3] = biological target: T3, GUN4 Δ1–69 (GENOMES UNCOUPLED 4) (Arabidopsis thaliana, UniProt Q9LX31, V123A)
T3 sequence (Q9LX31 70-265 V123A): T1 sequence (Q9LX31 70-265) with V54A

[4] = biological target: T4, GUN4 Δ1–69 (GENOMES UNCOUPLED 4) (Arabidopsis thaliana, UniProt Q9LX31, R211A)
T4 sequence (Q9LX31 70-265 R211A): T1 sequence (Q9LX31 70-265) with R142A

Row | Compound | Kd [1] [µM] | Kd [2] [µM] | Kd [3] [µM] | Kd [4] [µM]
1 | CC1=C(CCC(=O)O)c2cc3nc(cc4[nH]c(cc5[nH]c(cc1n2)c(C)c5CCC(=O)O)c(CCC(=O)O)c4C)C(CCC(=O)O)=C3C [Coproporphyrin III] | 15 ± 0.82 |  |  | 
2 | C=CC1=C(C)c2cc3[nH]c(cc4nc(cc5[nH]c(cc1n2)c(C)c5CCC(=O)O)C(CCC(=O)O)=C4C)c(C)c3C=C [PPIX] | 11 ± 0.5 |  |  | 
3 | O=C(O)CCC1=C(CC(=O)O)c2cc3[nH]c(cc4nc(cc5[nH]c(cc1n2)c(CC(=O)O)c5CCC(=O)O)C(CCC(=O)O)=C4CC(=O)O)c(CC(=O)O)c3CCC(=O)O [Uroporphyrin III] | 10 ± 0.57 |  |  | 

Stronger by Kd [1], values ahead:

Row | Kd [1] [µM] | Kd [2] [µM] | Kd [3] [µM] | Kd [4] [µM] | Compound
4 | 6.4 ± 0.21 | 12 ± 0.77 | 9.6 ± 0.44 | 14 ± 0.83 | CC1=C(CCC(=O)O)c2cc3nc(cc4[nH]c(cc4C)cc4[nH]c(cc1n2)cc4C)C(C)=C3CCC(=O)O [DPIX]
5 | 8.1 ± 0.75 |  |  |  | C=CC1=C(C)C2=Cc3c(C=C)c(C)c4[n]3[Fe]([Cl])[n]3c(c(C)c(CCC(=O)O)c3=CC3=NC(=C4)C(C)=C3CCC(=O)O)=CC1=N2 [Hemin]
6 | 3.8 ± 0.33 |  |  |  | C=Cc1c(C)c2cc3nc(c4c5[nH]c(cc6nc(cc1[nH]2)C(C)=C6CC)c(C)c5C(=O)[C@@H]4C(=O)OC)[C@@H](CCC(=O)O)[C@@H]3C [Pheophorbide a]
